These results are taken from DBAASP.

Among the test systems are Pseudomonas aeruginosa; Staphylococcus aureus; Escherichia coli.
Common to all, as to test: ≥ marks a high value that may be exact or a test limit, other limits are often not marked, values filed in µg/mL are converted to µM
For test [1], the system named is Pseudomonas aeruginosa ATCC 27853.
For test [2], the system named is Candida albicans ATCC 90028.
Test [3] relates to Escherichia coli ATCC 25922.
In test [4] the test system is Staphylococcus aureus ATCC 29213.
Test [5] concerns Staphylococcus aureus ATCC 25923.
Test [6] deals with Staphylococcus epidermidis ATCC 12228.

Structures are written as SMILES. ≈ marks a conversion by molar mass, not a printed value.

Consider `CC[C@H](C)[C@H](NC(=O)[C@H](CCCN=C(N)N)NC(=O)[C@H](CCC(N)=O)NC(=O)[C@@H](NC(=O)[C@H](C)NC(=O)[C@H](CCCN=C(N)N)NC(=O)[C@@H](N)CCCCN)C(C)C)C(=O)N[C@@H](CCCCN)C(=O)N[C@@H](CC(=O)O)C(=O)N[C@@H](Cc1ccccc1)C(=O)N[C@@H](CC(C)C)C(=O)N[C@@H](CCCN=C(N)N)C(=O)O` [KRAVQRIKDFLR], for which the MIC in test [1] was 10 µM (≈ 15.3 µg/mL); in test [2], at least 40 µM; in test [3], 5 µM (≈ 7.65 µg/mL); in test [4], 20 µM (≈ 30.6 µg/mL).
As for `CC[C@H](C)[C@H](NC(=O)CN)C(=O)NCC(=O)N[C@@H](CO)C(=O)N[C@H](C(=O)N[C@@H](CC(C)C)C(=O)NCC(=O)N[C@H](C(=O)N[C@H](C(=O)N[C@@H](C)C(=O)N[C@@H](CCCCN)C(=O)NCC(=O)N[C@@H](CC(C)C)C(=O)N1CCC[C@H]1C(=O)N[C@H](C(=O)N[C@@H](CC(C)C)C(=O)N[C@H](C(=O)N[C@@H](CO)C(=O)N[C@@H](Cc1c[nH]c2ccccc12)C(=O)N[C@H](C(=O)N[C@@H](CCCCN)C(=O)N[C@@H](CC(N)=O)C(=O)N[C@@H](CCCN=C(N)N)C(N)=O)[C@@H](C)CC)[C@@H](C)CC)[C@@H](C)O)[C@@H](C)CC)C(C)C)[C@@H](C)CC` [GIGSILGVIAKGLPTLISWIKNR], the MIC in test [5] is 5 µM (≈ 12 µg/mL); in test [2] it was 20 µM (≈ 48.1 µg/mL); in test [3], 20 µM (≈ 48.1 µg/mL).
Regarding `CC[C@H](C)[C@H](N)C(=O)N[C@@H](CC(N)=O)C(=O)N[C@@H](Cc1c[nH]c2ccccc12)C(=O)N[C@@H](CC(C)C)C(=O)N[C@@H](CCCCN)C(=O)N[C@@H](CC(C)C)C(=O)NCC(=O)N[C@@H](CCCCN)C(=O)N[C@@H](CCCCN)C(=O)N[C@H](C(=O)N[C@@H](CC(C)C)C(=O)NCC(=O)N[C@@H](C)C(=O)N[C@@H](CC(C)C)C(N)=O)[C@@H](C)CC` [INWLKLGKKILGAL], the MIC against Pseudomonas aeruginosa was determined as 86.6 µM (≈ 136 µg/mL); with Staphylococcus aureus it was 15.5 µM (≈ 24.3 µg/mL).
`CC[C@H](C)[C@H](NC(=O)[C@H](Cc1ccccc1)NC(=O)[C@H](CO)NC(=O)[C@H](CCCCN)NC(=O)[C@H](Cc1c[nH]c2ccccc12)NC(=O)[C@@H](N)CCCCN)C(=O)N[C@@H](CCCCN)C(=O)N[C@@H](CCCCN)C(=O)N[C@@H](CC(C)C)C(=O)N[C@H](C(=O)N[C@@H](CC(C)C)C(=O)N[C@@H](CCCCN)C(=O)N[C@@H](Cc1ccccc1)C(=O)N[C@@H](CC(C)C)C(=O)N[C@@H](Cc1cnc[nH]1)C(=O)N[C@@H](CO)C(=O)N[C@@H](CCCCN)C(=O)N[C@@H](CCCCN)C(=O)N[C@@H](CCCCN)C(=O)N[C@@H](Cc1ccccc1)C(N)=O)[C@@H](C)O` [KWKSFIKKLTLKFLHSKKKF]: the MIC against Pseudomonas aeruginosa was above 19.7 µM.
Take `CC[C@H](C)[C@H](NC(=O)CN)C(=O)N[C@@H](CCCCN)C(=O)N[C@@H](CCCCN)C(=O)N[C@@H](Cc1c[nH]c2ccccc12)C(=O)N1CCC[C@H]1C(=O)N[C@@H](Cc1cnc[nH]1)C(=O)N[C@@H](CCCCN)C(=O)N1CCC[C@H]1C(=O)N[C@@H](CCCCN)C(=O)N[C@@H](CCCCN)C(=O)N[C@@H](Cc1ccccc1)C(=O)NCC(=O)N[C@@H](CCCCN)C(=O)N[C@@H](CCCCN)C(=O)N[C@@H](Cc1ccccc1)C(=O)N[C@H](C(=O)N[C@@H](CCCCN)C(=O)N[C@@H](CCCCN)C(=O)N[C@H](C(=O)N[C@@H](CCSC)C(=O)N[C@@H](CC(N)=O)C(=O)N[C@@H](CO)C(N)=O)[C@@H](C)CC)C(C)C` [GIKKWPHKPKKFGKKFVKKIMNS]: the MIC in [3] worked out at 10 µM (≈ 27.5 µg/mL); in test [6], 5 µM (≈ 13.8 µg/mL).
For `C[C@H](NC(=O)[C@H](C)NC(=O)[C@H](CCCCN)NC(=O)[C@H](C)NC(=O)[C@H](Cc1ccccc1)NC(=O)[C@H](Cc1c[nH]c2ccccc12)NC(=O)[C@H](CCCCN)NC(=O)[C@H](Cc1c[nH]c2ccccc12)NC(=O)[C@H](CCCCN)NC(=O)[C@H](CCCCN)NC(=O)[C@H](C)NC(=O)[C@H](Cc1c[nH]c2ccccc12)NC(=O)[C@@H](N)CCCCN)C(=O)N[C@@H](Cc1c[nH]c2ccccc12)C(=O)N[C@@H](CCCCN)C(=O)N[C@@H](Cc1c[nH]c2ccccc12)C(=O)N[C@@H](Cc1ccc(O)cc1)C(=O)N[C@@H](CCCCN)C(=O)N[C@@H](CCCCN)C(N)=O` [KWAKKWKWFAKAAWKWYKK], the MIC with Staphylococcus aureus and against Escherichia coli was above 38.9 µM each time.
Consider `CC[C@H](C)[C@H](NC(=O)[C@H](Cc1c[nH]c2ccccc12)NC(=O)[C@H](CCCCN)NC(=O)[C@@H]1CCCN1C(=O)[C@H](CC(C)C)NC(=O)[C@H](CCCCN)NC(=O)CNC(=O)[C@@H](NC(=O)[C@@H](NC(=O)[C@H](CO)NC(=O)[C@@H](NC(=O)[C@@H](NC(=O)[C@H](CCCCN)NC(=O)[C@H](CCC(N)=O)NC(=O)[C@H](C)NC(=O)[C@@H](N)CCSC)[C@@H](C)CC)[C@@H](C)CC)[C@@H](C)O)[C@@H](C)CC)C(=O)N[C@H](C(=O)N[C@@H](CCCCN)C(=O)N[C@H](C(=O)N[C@H](C(=O)N[C@@H](CC(N)=O)C(=O)N[C@@H](CCCCN)C(=O)N[C@@H](Cc1ccccc1)C(=O)N[C@H](C(=O)N[C@@H](CCCCN)C(=O)N[C@@H](CCCCN)C(=O)O)[C@@H](C)O)C(C)C)[C@@H](C)O)[C@@H](C)CC` [MAQKIISTIGKLPKWIIKTVNKFTKK], for which the MIC is 20.8 µM (≈ 62.7 µg/mL) with Staphylococcus aureus and 3.4 µM (≈ 10.3 µg/mL) against Escherichia coli.
Regarding `CC[C@H](C)[C@H](NC(=O)CN)C(=O)N[C@@H](CCCCN)C(=O)N[C@@H](CCCCN)C(=O)N[C@@H](Cc1c[nH]c2ccccc12)C(=O)N[C@@H](CC(C)C)C(=O)N[C@@H](Cc1cnc[nH]1)C(=O)N[C@@H](CCCCN)C(=O)NCC(=O)N[C@@H](CCCCN)C(=O)N[C@@H](CCCCN)C(=O)N[C@@H](Cc1ccccc1)C(=O)NCC(=O)N[C@@H](CCCCN)C(=O)N[C@@H](CCCCN)C(=O)N[C@@H](Cc1ccccc1)C(=O)N[C@H](C(=O)N[C@@H](CCCCN)C(=O)N[C@@H](CCCCN)C(=O)N[C@H](C(=O)N[C@@H](CCSC)C(=O)N[C@@H](CC(N)=O)C(=O)N[C@@H](CO)C(N)=O)[C@@H](C)CC)C(C)C` [GIKKWLHKGKKFGKKFVKKIMNS], the MIC in test [3] came to 0.63 µM (≈ 1.72 µg/mL); in test [6], 0.08 µM (≈ 0.218 µg/mL).
`CC(C)C[C@H](NC(=O)[C@H](CCCCN)NC(=O)[C@@H]1CSSC[C@H](NC(=O)[C@H](CC(C)C)NC(=O)[C@H](CCCCN)NC(=O)[C@H](CC(C)C)NC(=O)[C@H](CC(C)C)NC(=O)[C@H](CCCCN)NC(=O)[C@H](CCCCN)NC(=O)[C@@H](N)CC(C)C)C(=O)N[C@@H](CCCCN)C(=O)N[C@@H](CCCCN)C(=O)N[C@@H](CC(C)C)C(=O)N1)C(=O)N[C@@H](C)C(=O)NCC(=O)O` [LKKLLKLCKKLCKLAG]: the minimum inhibitory concentration (MIC) in test [3] was 5 µM (≈ 8.99 µg/mL); against Escherichia coli, 20 µM (≈ 36 µg/mL); in test [4], above 40 µM.
For `CC[C@H](C)[C@H](NC(=O)CN)C(=O)N[C@@H](CCCCN)C(=O)N[C@@H](CCCCN)C(=O)N[C@@H](Cc1c[nH]c2ccccc12)C(=O)N[C@@H](CC(C)C)C(=O)N[C@@H](Cc1cnc[nH]1)C(=O)N[C@@H](CO)C(=O)N[C@@H](C)C(=O)N[C@@H](CCCCN)C(=O)N[C@@H](CCCCN)C(=O)N[C@@H](Cc1ccccc1)C(=O)N1CCC[C@H]1C(=O)N[C@@H](CCCCN)C(=O)N[C@@H](CCCCN)C(=O)N[C@@H](Cc1ccccc1)C(=O)N[C@H](C(=O)N[C@@H](CCCCN)C(=O)N[C@@H](CCCCN)C(=O)N[C@H](C(=O)N[C@@H](CCSC)C(=O)N[C@@H](CC(N)=O)C(=O)N[C@@H](CO)C(N)=O)[C@@H](C)CC)C(C)C` [GIKKWLHSAKKFPKKFVKKIMNS], the MIC in test [3] was determined as 1.25 µM (≈ 3.43 µg/mL); in test [6], 0.31 µM (≈ 0.85 µg/mL).
Take `CC(C)C[C@H](NC(=O)CNC(=O)[C@H](C)NC(=O)[C@H](CC(C)C)NC(=O)[C@H](CCCCN)NC(=O)[C@H](CCCCN)NC(=O)[C@H](C)NC(=O)[C@H](CC(C)C)NC(=O)CNC(=O)[C@H](C)NC(=O)[C@H](Cc1c[nH]c2ccccc12)NC(=O)[C@H](CCCCN)NC(=O)[C@H](CCCCN)NC(=O)[C@H](C)NC(=O)[C@H](CC(C)C)NC(=O)CNC(=O)[C@H](C)NC(=O)[C@H](CC(C)C)NC(=O)[C@H](CCCCN)NC(=O)[C@@H](N)CCCCN)C(=O)N[C@@H](C)C(N)=O` [KKLAGLAKKWAGLAKKLAGLA]: the minimal inhibitory concentration (MIC) is 7.49 µM (≈ 16 µg/mL) with Pseudomonas aeruginosa, 7.49 µM (≈ 16 µg/mL) against Staphylococcus aureus and 3.74 µM (≈ 8 µg/mL) with Escherichia coli.
Regarding `CC[C@H](C)[C@H](NC(=O)CN)C(=O)N[C@@H](CCCCN)C(=O)N[C@@H](CCCCN)C(=O)N[C@@H](Cc1c[nH]c2ccccc12)C(=O)N[C@@H](CC(C)C)C(=O)N[C@@H](Cc1cnc[nH]1)C(=O)N[C@@H](CO)C(=O)N[C@@H](C)C(=O)N[C@@H](CCCCN)C(=O)N[C@@H](CCCCN)C(=O)N[C@@H](Cc1ccccc1)C(=O)NCC(=O)N[C@@H](CCCCN)C(=O)N[C@@H](CCCCN)C(=O)N[C@@H](Cc1ccccc1)C(=O)N[C@H](C(=O)N[C@@H](CCCCN)C(=O)N[C@@H](CCCCN)C(=O)N[C@H](C(=O)N[C@@H](CCSC)C(=O)N[C@@H](CC(N)=O)C(=O)N[C@@H](CO)C(N)=O)[C@@H](C)CC)C(C)C` [GIKKWLHSAKKFGKKFVKKIMNS], the values for the MIC in test [3] and in test [6] were 0.63 µM (≈ 1.7 µg/mL) and 0.16 µM (≈ 0.433 µg/mL), respectively.
Take `CC[C@H](C)[C@H](NC(=O)CN)C(=O)N[C@@H](CCCCN)C(=O)N[C@@H](CCCCN)C(=O)N[C@@H](Cc1c[nH]c2ccccc12)C(=O)N[C@@H](CC(C)C)C(=O)N[C@@H](Cc1cnc[nH]1)C(=O)N[C@@H](CO)C(=O)N1CCC[C@H]1C(=O)N[C@@H](CCCCN)C(=O)N[C@@H](CCCCN)C(=O)N[C@@H](Cc1ccccc1)C(=O)NCC(=O)N[C@@H](CCCCN)C(=O)N[C@@H](CCCCN)C(=O)N[C@@H](Cc1ccccc1)C(=O)N[C@H](C(=O)N[C@@H](CCCCN)C(=O)N[C@@H](CCCCN)C(=O)N[C@H](C(=O)N[C@@H](CCSC)C(=O)N[C@@H](CC(N)=O)C(=O)N[C@@H](CO)C(N)=O)[C@@H](C)CC)C(C)C` [GIKKWLHSPKKFGKKFVKKIMNS]: the MIC in [3] stood at 2.5 µM (≈ 6.82 µg/mL); in test [6] it was 1.25 µM (≈ 3.41 µg/mL).
